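Compound exposure: 48 hours, 5 concentrations, 96-well plates. TGI denotes the concentration required for complete inhibition of growth.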
Tests used:
Test in all cases: NCI anticancer screen, dose series, 48 h
[1] = tested on: 786-0 renal
[2] = tested on: HT29 colon
[3] = tested on: KM12 colon
[4] = tested on: OVCAR-8 ovarian
[5] = tested on: SF-295 CNS
[6] = tested on: A549 NSCLC
[7] = tested on: SF-268 CNS
[8] = tested on: HOP-62 NSCLC
[9] = tested on: SK-MEL-5 melanoma
[10] = tested on: NCI-H23 lung
[11] = tested on: HL-60(TB) leukemia
[12] = tested on: PC-3 prostate
[13] = tested on: ACHN renal
[14] = tested on: IGROV1 ovarian
[15] = tested on: T-47D breast
[16] = tested on: OVCAR-5 ovarian
[17] = tested on: HCT-116 colon
[18] = tested on: BT-549 breast
[19] = tested on: SR leukemia

## O=c1c(-c2ccccc2F)coc2cc(F)ccc12
[1]
  TGI: > 100 µM
[2]
  TGI: > 100 µM
[3]
  TGI: > 100 µM
[4]
  TGI: > 100 µM
[5]
  TGI: > 100 µM
[6]
  TGI: > 100 µM
[7]
  TGI: > 100 µM
[8]
  TGI: > 100 µM
[9]
  TGI: > 100 µM
[10]
  TGI: > 100 µM
[11]
  TGI: > 100 µM
[12]
  TGI: > 100 µM
[13]
  TGI: > 100 µM
[14]
  TGI: > 100 µM
[15]
  TGI: > 100 µM
[16]
  TGI: > 100 µM
[17]
  TGI: > 100 µM
[18]
  TGI: > 100 µM

## COC1(OC)C=CC2C1C1C=CC2C1(OC)OC (stereo not drawn)
[1]
  TGI: > 100 µM
[2]
  TGI: > 100 µM
[3]
  TGI: > 100 µM
[4]
  TGI: > 100 µM
[5]
  TGI: > 100 µM
[6]
  TGI: > 100 µM
[7]
  TGI: > 100 µM
[8]
  TGI: > 100 µM
[9]
  TGI: > 100 µM
[10]
  TGI: > 100 µM
[12]
  TGI: > 100 µM
[13]
  TGI: > 100 µM
[14]
  TGI: > 100 µM
[15]
  TGI: > 100 µM
[16]
  TGI: > 100 µM
[19]
  TGI: > 100 µM
[17]
  TGI: > 100 µM

## CCOC(=O)c1cc(Br)c(-c2cc(C)no2)[nH]1
[1]
  TGI: > 100 µM
[2]
  TGI: > 100 µM
[3]
  TGI: 24.7 µM
[4]
  TGI: > 100 µM
[5]
  TGI: > 100 µM
[6]
  TGI: > 100 µM
[7]
  TGI: > 100 µM
[9]
  TGI: 47.5 µM
[10]
  TGI: > 100 µM
[11]
  TGI: 83.6 µM
[12]
  TGI: > 100 µM
[13]
  TGI: > 100 µM
[15]
  TGI: > 100 µM
[16]
  TGI: > 100 µM
[17]
  TGI: > 100 µM
[18]
  TGI: > 100 µM

## CC1(c2ccc(Cl)s2)CC(c2ccc(Cl)s2)=C(C#N)C(=C(C#N)C#N)N1 (stereo not drawn)
[1]
  TGI: 40.6 µM
[2]
  TGI: 36.8 µM
[3]
  TGI: 36 µM
[4]
  TGI: 50.4 µM
[5]
  TGI: 29.8 µM
[6]
  TGI: 48.8 µM
[7]
  TGI: 48.9 µM
[8]
  TGI: 36 µM
[9]
  TGI: 29.5 µM
[10]
  TGI: 42.2 µM
[11]
  TGI: 40.1 µM
[12]
  TGI: 33.5 µM
[13]
  TGI: 31.4 µM
[14]
  TGI: 35.3 µM
[15]
  TGI: 46.7 µM
[16]
  TGI: 35.8 µM
[17]
  TGI: 34.2 µM
[18]
  TGI: 45.7 µM

## O=C1c2c(ccc3c2CCC3)CC12Cc1ccccc1C2
[1]
  TGI: 91.5 µM
[2]
  TGI: 47.1 µM
[3]
  TGI: 51.4 µM
[4]
  TGI: > 100 µM
[5]
  TGI: > 100 µM
[6]
  TGI: > 100 µM
[7]
  TGI: > 100 µM
[8]
  TGI: > 100 µM
[9]
  TGI: 24.3 µM
[10]
  TGI: > 100 µM
[11]
  TGI: 34.9 µM
[12]
  TGI: > 100 µM
[13]
  TGI: > 100 µM
[14]
  TGI: > 100 µM
[15]
  TGI: > 100 µM
[16]
  TGI: > 100 µM
[17]
  TGI: 19.6 µM

## CCOC(OCC)N1C(=O)C2(C(OCC)OCC)CC3C(OC(=O)N3N)c3cccc1c32 (stereo not drawn)
[1]
  TGI: > 100 µM
[2]
  TGI: > 100 µM
[3]
  TGI: > 100 µM
[4]
  TGI: > 100 µM
[5]
  TGI: > 100 µM
[6]
  TGI: > 100 µM
[7]
  TGI: > 100 µM
[8]
  TGI: > 100 µM
[9]
  TGI: > 100 µM
[10]
  TGI: > 100 µM
[11]
  TGI: > 100 µM
[13]
  TGI: > 100 µM
[14]
  TGI: > 100 µM
[15]
  TGI: > 100 µM
[16]
  TGI: > 100 µM
[19]
  TGI: > 100 µM
[17]
  TGI: > 100 µM
[18]
  TGI: > 100 µM

## COc1ccc(/C(=C/n2ccnc2)C(O)c2ccc(OC)c(OC)c2)cc1OC (stereo not drawn)
[1]
  TGI: > 100 µM
[2]
  TGI: > 100 µM
[3]
  TGI: > 100 µM
[4]
  TGI: > 100 µM
[5]
  TGI: > 100 µM
[7]
  TGI: > 100 µM
[8]
  TGI: > 100 µM
[10]
  TGI: > 100 µM
[11]
  TGI: > 100 µM
[14]
  TGI: > 100 µM
[16]
  TGI: > 100 µM
[19]
  TGI: > 100 µM

## CCOc1ccccc1-c1nc2c(s1)C(=O)c1ccccc1C2=O
[1]
  TGI: 30.5 µM
[3]
  TGI: 29.8 µM
[5]
  TGI: 25.1 µM
[6]
  TGI: 36.9 µM
[7]
  TGI: 29 µM
[8]
  TGI: 28.7 µM
[9]
  TGI: 18.7 µM
[10]
  TGI: 31 µM
[11]
  TGI: 4.4 µM
[12]
  TGI: 29.6 µM
[13]
  TGI: 29.2 µM
[14]
  TGI: 27.7 µM
[15]
  TGI: 63.9 µM
[16]
  TGI: 40.1 µM
[19]
  TGI: > 100 µM
[17]
  TGI: 29.3 µM

## O=C1NNC2NC(=O)C3(NN2C1=O)c1ccccc1-c1ccccc13 (stereo not drawn)
[1]
  TGI: > 100 µM
[2]
  TGI: > 100 µM
[4]
  TGI: > 100 µM
[5]
  TGI: > 100 µM
[6]
  TGI: > 100 µM
[7]
  TGI: > 100 µM
[8]
  TGI: > 100 µM
[9]
  TGI: > 100 µM
[10]
  TGI: > 100 µM
[11]
  TGI: > 100 µM
[12]
  TGI: > 100 µM
[13]
  TGI: > 100 µM
[14]
  TGI: > 100 µM
[16]
  TGI: > 100 µM
[19]
  TGI: > 100 µM
[17]
  TGI: > 100 µM
[18]
  TGI: > 100 µM

## O=C(O)[C@H](Cc1ccccc1)NCCN1CCC[C@H]1C(=O)O
[1]
  TGI: > 100 µM
[2]
  TGI: > 100 µM
[3]
  TGI: > 100 µM
[4]
  TGI: > 100 µM
[5]
  TGI: > 100 µM
[6]
  TGI: > 100 µM
[7]
  TGI: > 100 µM
[8]
  TGI: > 100 µM
[9]
  TGI: > 100 µM
[10]
  TGI: > 100 µM
[12]
  TGI: > 100 µM
[15]
  TGI: > 100 µM
[16]
  TGI: > 100 µM
[17]
  TGI: > 100 µM

## O=C(NC(Cc1cnc[nH]1)C(=O)N1CCCC1)C1CCCC1 (stereo not drawn)
[1]
  TGI: > 100 µM
[2]
  TGI: > 100 µM
[3]
  TGI: > 100 µM
[4]
  TGI: > 100 µM
[5]
  TGI: > 100 µM
[6]
  TGI: > 100 µM
[8]
  TGI: > 100 µM
[9]
  TGI: > 100 µM
[10]
  TGI: > 100 µM
[11]
  TGI: > 100 µM
[12]
  TGI: > 100 µM
[13]
  TGI: > 100 µM
[14]
  TGI: > 100 µM
[16]
  TGI: > 100 µM
[19]
  TGI: > 100 µM
[17]
  TGI: > 100 µM
[18]
  TGI: > 100 µM

## C[N+](C)(C)c1cc2c(nn1)Nc1ccccc1S2
[1]
  TGI: > 100 µM
[2]
  TGI: 42.5 µM
[3]
  TGI: > 100 µM
[4]
  TGI: 77.9 µM
[5]
  TGI: 49.7 µM
[6]
  TGI: > 100 µM
[7]
  TGI: > 100 µM
[8]
  TGI: 69.8 µM
[9]
  TGI: 29.9 µM
[10]
  TGI: > 100 µM
[11]
  TGI: 74 µM
[12]
  TGI: 47.9 µM
[13]
  TGI: 69.6 µM
[14]
  TGI: 81.2 µM
[15]
  TGI: 28.2 µM
[16]
  TGI: 58.2 µM
[17]
  TGI: 66 µM
[18]
  TGI: > 100 µM

## COC(=O)[C@H]1COC(=O)N1
[1]
  TGI: > 100 µM
[2]
  TGI: > 100 µM
[3]
  TGI: > 100 µM
[4]
  TGI: > 100 µM
[5]
  TGI: > 100 µM
[6]
  TGI: > 100 µM
[7]
  TGI: > 100 µM
[8]
  TGI: > 100 µM
[9]
  TGI: > 100 µM
[10]
  TGI: > 100 µM
[11]
  TGI: > 100 µM
[13]
  TGI: > 100 µM
[14]
  TGI: > 100 µM
[15]
  TGI: > 100 µM
[16]
  TGI: > 100 µM
[17]
  TGI: > 100 µM
[18]
  TGI: > 100 µM

## O/N=C1/CC2(N3CCOCC3)C3CC/C(=N\O)C2CC1(Cc1ccccc1)C3 (stereo not drawn)
[1]
  TGI: > 100 µM
[2]
  TGI: > 100 µM
[3]
  TGI: > 100 µM
[4]
  TGI: > 100 µM
[5]
  TGI: > 100 µM
[6]
  TGI: > 100 µM
[7]
  TGI: > 100 µM
[8]
  TGI: > 100 µM
[9]
  TGI: > 100 µM
[10]
  TGI: > 100 µM
[11]
  TGI: > 100 µM
[12]
  TGI: > 100 µM
[13]
  TGI: > 100 µM
[14]
  TGI: > 100 µM
[15]
  TGI: > 100 µM
[16]
  TGI: > 100 µM
[19]
  TGI: > 100 µM
[17]
  TGI: > 100 µM
